From ChEMBL document CHEMBL1201862, “PubChem BioAssay data set” (2004) come the findings set out here.

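Dose response: 5 concentrations. Exposure: 48 h. Format: 96-well plates. Endpoint: linear interpolation; highest concentration if not reached. GI50 marks 50% less growth.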 Active and inactive are the calls of the source. Cut-off read from the data, not from the text of the source: active = GI50 up to about 1.1 µM and inactive = higher. A value given as a limit tells only on which side of the number the result lay.

Common to all, as to experiment: inhibition of tumour cell growth, NCI panel, 48 h
Assay [1] has as its system TK-10.
In assay [2] the test system is SW-620.
Assay [3] deals with HCT-15.
Assay [4] relates to ACHN.
For assay [5], the system named is PC-3.
In assay [6] the test system is KM12.
In assay [7] the test system is Malme-3M.
Assay [8] relates to SR.
Assay [9] deals with DU-145.
For assay [10], the system named is OVCAR-5.
Assay [11] deals with CCRF-CEM.
Assay [12] concerns OVCAR-4.
The test system of assay [13] is NCI-H522.
For assay [14], the system named is BT-549.
For assay [15], the system named is MDA-N.

On to `COc1ccc2c(c1)C(=O)CCc1cc(OC)c(OC)c(OC)c1-2`, for which the GI50 was 15.1 µM (inactive) in assay [1]; 0.0716 µM (active) in assay [2]; 0.0359 µM in [3]; 0.0863 µM (active) in [4]; 0.0474 µM (active) in assay [5]; 0.0298 µM (active) in [6]. The GI50 was 0.0304 µM (active) in [7]; 0.0354 µM (active) in assay [8]; 0.0335 µM (active) in assay [9]; 0.0783 µM (active) in assay [10]; 0.0512 µM (active) in assay [11]; 0.0582 µM (active) in assay [12]. The GI50 in assay [13] is < 0.01 µM (active).
On to `CCNc1cc2c(cc1O)CC[C@@H]1[C@@H]2CC[C@]2(C)[C@@H](O)CC[C@@H]12`, for which the GI50 in [1] was 19.5 µM (inactive); in [2], 2.82 µM (inactive); in assay [14], 15.6 µM (inactive); in [3] it was 0.942 µM; in assay [4] it was 8.83 µM (inactive); in [5] it was 9.91 µM (inactive). Besides, the GI50 is 9.04 µM (inactive) in assay [6]; 3.75 µM (inactive) in assay [7]; 1.31 µM (inactive) in [8]; 20.3 µM (inactive) in assay [10]; 1.41 µM (inactive) in assay [11]; 8.26 µM (inactive) in assay [12]. Moreover, the GI50 in [13] is 2.04 µM (inactive); in assay [15], 0.232 µM (active).
Take `FC(F)(F)c1nc2cc(SSc3cc4nc(C(F)(F)F)[nH]c4cc3Cl)c(Cl)cc2[nH]1`: the GI50 is > 100 µM (inactive) in assay [1]; > 100 µM (inactive) in assay [2]; > 100 µM (inactive) in assay [14]; above 100 µM in assay [3]; > 100 µM (inactive) in [4]; > 100 µM (inactive) in [5]. In addition, the GI50 in assay [7] was 82.8 µM (inactive); in assay [9] it was > 100 µM (inactive); in assay [10], > 100 µM (inactive); in [12], 92.5 µM (inactive); in assay [13], 66.4 µM (inactive).
Regarding `Oc1cc(-c2ccc(Cl)cc2)cn2c1nc1ccccc12`, the GI50 in assay [1] is > 100 µM (inactive); in assay [2], 6.46 µM (inactive); in [3], above 100 µM; in [5] it was > 100 µM (inactive); in assay [6], 5.47 µM (inactive); in assay [7], > 100 µM (inactive). The GI50 in [9] is > 100 µM (inactive); in [12], > 100 µM (inactive); in assay [13], 2.09 µM (inactive); in assay [15], 2.99 µM (inactive).
For `CC1(C)OP(=O)(O)C=C1Sc1ccc([N+](=O)[O-])cc1[N+](=O)[O-]`, the GI50 was > 100 µM (inactive) in assay [1]; > 100 µM (inactive) in assay [2]; above 100 µM in assay [3]; > 100 µM (inactive) in assay [4]; > 100 µM (inactive) in [5]; > 100 µM (inactive) in assay [6]. The GI50 in [7], in assay [8], in assay [9], in assay [10], in assay [12] and in assay [13] was > 100 µM (inactive) in each case. Further, the GI50 in assay [15] was > 100 µM (inactive).
Take `Cc1ccc(Nc2n[nH]c(=S)s2)cc1`: the GI50 is > 100 µM (inactive) in assay [1]; > 100 µM (inactive) in [2]; above 100 µM in assay [3]; > 100 µM (inactive) in assay [4]; > 100 µM (inactive) in assay [5]; 69 µM (inactive) in assay [6]. The GI50 was > 100 µM (inactive) in [7]; > 100 µM (inactive) in [8]; > 100 µM (inactive) in assay [9]; > 100 µM (inactive) in assay [10]; > 100 µM (inactive) in assay [11]; 59.4 µM (inactive) in assay [15].
`COc1cc(OC)nc(NC(=O)NS(=O)(=O)c2cccc3ncn(C)c(=O)c23)n1`: the GI50 was > 100 µM (inactive) in [1]; > 100 µM (inactive) in assay [2]; above 100 µM in assay [3]; > 100 µM (inactive) in assay [4]; > 100 µM (inactive) in [7]; > 100 µM (inactive) in assay [8]. For the same compound, the GI50 in assay [9], in assay [10], in [11], in [12], in assay [13] and in assay [15] was > 100 µM (inactive) in each case.
As for `O=S(=O)(O)c1cc(/N=N/c2c(O)ccc3ccccc23)ccc1/C=C/c1ccc(/N=N/c2c(O)ccc3ccccc23)cc1S(=O)(=O)O`, the GI50 was > 100 µM (inactive) in [1]; > 100 µM (inactive) in assay [2]; > 100 µM (inactive) in assay [14]; above 100 µM in [3]; > 100 µM (inactive) in assay [4]; > 100 µM (inactive) in assay [5]. The GI50 in assay [6] was > 100 µM (inactive); in assay [7] it was 26.9 µM (inactive); in assay [10], > 100 µM (inactive); in [12], > 100 µM (inactive); in [13], > 100 µM (inactive); in assay [15], > 100 µM (inactive).
In the case of `C=C1CC2(CCCC3(CC(=C)C(=O)O3)C2(C)C)OC1=O` (stereo unspecified), the GI50 in assay [1] was 1.18 µM (inactive); in assay [2], 1.39 µM (inactive); in assay [14], 3.75 µM (inactive); in assay [3], 0.491 µM; in assay [4] it was 1.07 µM (active); in [5] it was 8.09 µM (inactive). In addition, the GI50 in assay [6] was 8.11 µM (inactive); in [7] it was 1.64 µM (inactive); in assay [9] it was 3.73 µM (inactive); in [10], 1.58 µM (inactive); in [11], 0.437 µM (active); in assay [12] it was 4.85 µM (inactive). In assay [13], the GI50 is 1.46 µM (inactive).
Regarding `COc1cc(/C=C2/SC(c3ccccc3)N(c3ccccc3)C2=O)cc(OC)c1OC` (stereo unspecified), the GI50 in assay [1] is > 100 µM (inactive); in assay [2], > 100 µM (inactive); in [14], 29 µM (inactive); in assay [3], 61.7 µM; in assay [4], 84.3 µM (inactive); in assay [6], 30.3 µM (inactive). In addition, the GI50 in assay [7] was 80.2 µM (inactive); in assay [8], 14 µM (inactive); in [9], > 100 µM (inactive); in assay [10], > 100 µM (inactive); in [11], 10.6 µM (inactive); in assay [12] it was 69.5 µM (inactive). Moreover, the GI50 in assay [13] is 21.7 µM (inactive).
As to `Nc1nc2c(ncn2Cc2ccc(CO)cc2)c(=O)[nH]1`, the GI50 in assay [1] was > 100 µM (inactive); in assay [2], > 100 µM (inactive); in assay [14], > 100 µM (inactive); in assay [3], above 100 µM; in assay [4], > 100 µM (inactive); in assay [5], > 100 µM (inactive). Further, the GI50 in assay [6] is > 100 µM (inactive); in assay [7] it was > 100 µM (inactive); in assay [8], 95.5 µM (inactive); in assay [9] it was > 100 µM (inactive); in assay [10], > 100 µM (inactive); in [11], > 100 µM (inactive). Also, the GI50 in assay [12] and in assay [13] was > 100 µM (inactive) throughout.
Consider `COc1ccc(-n2c(N)c(C#N)[nH]c2=O)cc1`, for which the GI50 was > 10 µM (inactive) in [1]; > 10 µM (inactive) in [2]; above 10 µM in [3]; > 10 µM (inactive) in [4]; > 10 µM (inactive) in assay [5]; > 10 µM (inactive) in assay [6]. Besides, the GI50 was > 10 µM (inactive) in assay [7]; > 10 µM (inactive) in assay [8]; > 10 µM (inactive) in assay [9]; 3.5 µM (inactive) in assay [10]; > 10 µM (inactive) in assay [11]; > 10 µM (inactive) in [12]. In addition, the GI50 in [13] and in assay [15] was > 10 µM (inactive) throughout.
Regarding `CCOC(=O)C1=C(C)N(Cc2ccc(Cl)cc2Cl)C2(O)C=CC(=O)C3C(=O)N(c4ccccc4)C(=O)C132` (stereo unspecified), the GI50 was 2.72 µM (inactive) in assay [1]; 1.32 µM (inactive) in assay [2]; 1.3 µM (inactive) in assay [14]; 1.52 µM in assay [3]; 1.71 µM (inactive) in assay [4]; 1.5 µM (inactive) in [5]. For the same compound, the GI50 is 1.71 µM (inactive) in assay [6]; 2.09 µM (inactive) in assay [7]; 0.51 µM (active) in assay [8]; 1.36 µM (inactive) in assay [9]; 3.17 µM (inactive) in assay [10]; 0.222 µM (active) in assay [11]. Moreover, the GI50 in assay [12] is 1.51 µM (inactive); in assay [13], 1.72 µM (inactive).
For the compound `CSc1c(C(N)=S)c(N)nn1-c1ccccc1`, the GI50 in assay [1] was > 100 µM (inactive); in [2], > 100 µM (inactive); in assay [14] it was > 100 µM (inactive); in [3], above 100 µM; in [5], > 100 µM (inactive); in assay [6] it was > 100 µM (inactive). Besides, the GI50 in assay [7], in assay [8], in assay [9], in assay [10], in [12] and in [13] was > 100 µM (inactive) in each case.
For `O=c1[nH]c(=O)n(C2OC(CO)C(O)C2O)cc1OCCc1ccccc1` (stereo unspecified), the GI50 in assay [1] is > 100 µM (inactive); in assay [2], > 100 µM (inactive); in assay [3], above 100 µM; in assay [4] it was > 100 µM (inactive); in assay [5], > 100 µM (inactive); in assay [6], > 100 µM (inactive). Besides, the GI50 in assay [7], in assay [8], in assay [9], in [10], in assay [11] and in assay [12] was > 100 µM (inactive) in each case. The GI50 in assay [13] and in assay [15] was > 100 µM (inactive) in each case.
